The record followed here is the supplement of paper PMC10307832.

Common to all, as to assay: relative viability (nuclei count vs DMSO), 5 days (fraction); higher = more cells survive
Compound in the test “MLN4924 + Pictilisib”: NS(=O)(=O)OC[C@@H]1C[C@@H](n2ccc3c(N[C@H]4CCc5ccccc54)ncnc32)C[C@@H]1O [MLN4924] + CS(=O)(=O)N1CCN(Cc2cc3nc(-c4cccc5[nH]ncc45)nc(N4CCOCC4)c3s2)CC1 [Pictilisib] (partner 1 µM)
A digest of the protocol: (§1)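 Relative viability divides the nuclei count in treated wells by that in vehicle wells. Lung cancer cell lines were seeded in 1536-well plates, dosed by pin tool the next day, and fixed and stained after 5 days in one step with final 0.05% Triton X-100, 1% formaldehyde and 1 ug/ml Hoechst. Dosing was a single drug or a fixed anchor-drug dose plus five library-drug doses (not always all listed) in √10 steps, and values are medians of duplicate plates imaged at 4×.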

Compound in the test “GSK126 + OSI-027”: CC[C@H](C)N1C=C(C2=C(C=C(C=C21)C3=CN=C(C=C3)N4CCNCC4)C(=O)NCC5=C(C=C(NC5=O)C)C)C [GSK126] + COc1cccc2cc(-c3nc([C@H]4CC[C@H](C(=O)O)CC4)n4ncnc(N)c34)[nH]c12 [OSI-027] (partner 0.5 µM)
A digest of the protocol:
as §1

Compound in the test “MLN4924 + Vorinostat”: NS(=O)(=O)OC[C@@H]1C[C@@H](n2ccc3c(N[C@H]4CCc5ccccc54)ncnc32)C[C@@H]1O [MLN4924] + O=C(CCCCCCC(=O)Nc1ccccc1)NO [Vorinostat] (partner 1 µM)
A digest of the protocol:
as §1

Compound in the test “Carboplatin + Tozasertib”: C1CC(C1)(C(=O)O)C(=O)O.[NH2-].[NH2-].[Pt+2] [Carboplatin] + Cc1cc(Nc2cc(N3CCN(C)CC3)nc(Sc3ccc(NC(=O)C4CC4)cc3)n2)n[nH]1 [Tozasertib] (partner 0.1 µM)
A digest of the protocol: as §1

As to LXF-289, the relative viability in the test with MLN4924 + Pictilisib (first compound 0.04 µM) turned out to be 0.683; with MLN4924 + Pictilisib (first compound 0.1265 µM), 0.688; in the test with MLN4924 + Pictilisib (first compound 0.4 µM), 0.374; in the test with MLN4924 + Pictilisib (first compound 1.265 µM), 0.134; with MLN4924 + Pictilisib (first compound 4 µM), 0.0975; with GSK126 + OSI-027 (first compound 0.08 µM), 0.838. Moreover, the relative viability with GSK126 + OSI-027 (first compound 0.253 µM) amounted to 0.86; in the test with GSK126 + OSI-027 (first compound 0.8 µM), 0.784; with GSK126 + OSI-027 (first compound 2.53 µM) it was 0.877; in the test with GSK126 + OSI-027 (first compound 8 µM) it was 0.768; with MLN4924 + Vorinostat (first compound 0.04 µM), 0.654; with MLN4924 + Vorinostat (first compound 0.1265 µM) it was 0.506. In addition, the relative viability is 0.462 with MLN4924 + Vorinostat (first compound 0.4 µM); 0.143 with MLN4924 + Vorinostat (first compound 1.265 µM); 0.115 in the test with MLN4924 + Vorinostat (first compound 4 µM); 0.199 in the test with Carboplatin + Tozasertib (first compound 0.08 µM); 0.209 with Carboplatin + Tozasertib (first compound 0.253 µM); 0.22 in the test with Carboplatin + Tozasertib (first compound 0.8 µM). Further, the relative viability was 0.218 with Carboplatin + Tozasertib (first compound 2.53 µM) and 0.177 with Carboplatin + Tozasertib (first compound 8 µM).
For the cell line NCI-H23, the relative viability came to 0.249 with MLN4924 + Pictilisib (first compound 0.04 µM); 0.288 in the test with MLN4924 + Pictilisib (first compound 0.1265 µM); 0.183 with MLN4924 + Pictilisib (first compound 0.4 µM); 0.0988 in the test with MLN4924 + Pictilisib (first compound 1.265 µM); 0.141 in the test with MLN4924 + Pictilisib (first compound 4 µM); 0.697 with GSK126 + OSI-027 (first compound 0.08 µM). The relative viability with GSK126 + OSI-027 (first compound 0.253 µM) is 0.6; with GSK126 + OSI-027 (first compound 0.8 µM), 0.668; with GSK126 + OSI-027 (first compound 2.53 µM), 0.682; with GSK126 + OSI-027 (first compound 8 µM), 0.559; in the test with MLN4924 + Vorinostat (first compound 0.04 µM) it was 0.521; with MLN4924 + Vorinostat (first compound 0.1265 µM), 0.441. The relative viability with MLN4924 + Vorinostat (first compound 0.4 µM) stood at 0.197; with MLN4924 + Vorinostat (first compound 1.265 µM) it was 0.134; in the test with MLN4924 + Vorinostat (first compound 4 µM), 0.142; in the test with Carboplatin + Tozasertib (first compound 0.08 µM), 0.4; with Carboplatin + Tozasertib (first compound 0.253 µM), 0.315; with Carboplatin + Tozasertib (first compound 0.8 µM), 0.385. In addition, the relative viability with Carboplatin + Tozasertib (first compound 2.53 µM) was 0.356; in the test with Carboplatin + Tozasertib (first compound 8 µM), 0.317.
As for NCI-H322M, the relative viability stood at 0.556 with MLN4924 + Pictilisib (first compound 0.04 µM); 0.855 with MLN4924 + Pictilisib (first compound 0.1265 µM); 0.669 in the test with MLN4924 + Pictilisib (first compound 0.4 µM); 0.291 in the test with MLN4924 + Pictilisib (first compound 1.265 µM); 0.333 in the test with MLN4924 + Pictilisib (first compound 4 µM); 0.544 with GSK126 + OSI-027 (first compound 0.08 µM). Also, the relative viability is 0.571 with GSK126 + OSI-027 (first compound 0.253 µM); 0.56 with GSK126 + OSI-027 (first compound 0.8 µM); 0.565 with GSK126 + OSI-027 (first compound 2.53 µM); 0.62 in the test with GSK126 + OSI-027 (first compound 8 µM); 1.27 in the test with MLN4924 + Vorinostat (first compound 0.04 µM); 1.47 with MLN4924 + Vorinostat (first compound 0.1265 µM). The relative viability is 0.863 with MLN4924 + Vorinostat (first compound 0.4 µM); 0.38 with MLN4924 + Vorinostat (first compound 1.265 µM); 0.475 with MLN4924 + Vorinostat (first compound 4 µM); 0.534 in the test with Carboplatin + Tozasertib (first compound 0.08 µM); 0.532 with Carboplatin + Tozasertib (first compound 0.253 µM); 0.56 with Carboplatin + Tozasertib (first compound 0.8 µM). Besides, the relative viability with Carboplatin + Tozasertib (first compound 2.53 µM) stood at 0.481; with Carboplatin + Tozasertib (first compound 8 µM) it was 0.479.
Regarding NCI-H358, the relative viability came out at 0.481 in the test with MLN4924 + Pictilisib (first compound 0.04 µM); 0.496 with MLN4924 + Pictilisib (first compound 0.1265 µM); 0.227 with MLN4924 + Pictilisib (first compound 0.4 µM); 0.175 with MLN4924 + Pictilisib (first compound 1.265 µM); 0.188 in the test with MLN4924 + Pictilisib (first compound 4 µM); 1 with GSK126 + OSI-027 (first compound 0.08 µM). The relative viability with GSK126 + OSI-027 (first compound 0.253 µM) was 0.85; in the test with GSK126 + OSI-027 (first compound 0.8 µM) it was 0.812; in the test with GSK126 + OSI-027 (first compound 2.53 µM), 0.904; in the test with GSK126 + OSI-027 (first compound 8 µM), 0.897; in the test with MLN4924 + Vorinostat (first compound 0.04 µM) it was 0.621; in the test with MLN4924 + Vorinostat (first compound 0.1265 µM), 0.479. In addition, the relative viability with MLN4924 + Vorinostat (first compound 0.4 µM) was found to be 0.264; in the test with MLN4924 + Vorinostat (first compound 1.265 µM) it was 0.0895; in the test with MLN4924 + Vorinostat (first compound 4 µM), 0.0817; with Carboplatin + Tozasertib (first compound 0.08 µM), 0.113; in the test with Carboplatin + Tozasertib (first compound 0.253 µM), 0.101; in the test with Carboplatin + Tozasertib (first compound 0.8 µM) it was 0.107. For the same cell line, the relative viability with Carboplatin + Tozasertib (first compound 2.53 µM) came to 0.108; with Carboplatin + Tozasertib (first compound 8 µM), 0.114.
NCI-H441: the relative viability with MLN4924 + Pictilisib (first compound 0.04 µM) is 0.471; in the test with MLN4924 + Pictilisib (first compound 0.1265 µM), 0.285; with MLN4924 + Pictilisib (first compound 0.4 µM) it was 0.251; with MLN4924 + Pictilisib (first compound 1.265 µM) it was 0.136; in the test with MLN4924 + Pictilisib (first compound 4 µM), 0.139; with GSK126 + OSI-027 (first compound 0.08 µM) it was 0.949. Moreover, the relative viability turned out to be 0.686 in the test with GSK126 + OSI-027 (first compound 0.253 µM); 0.637 with GSK126 + OSI-027 (first compound 0.8 µM); 0.677 with GSK126 + OSI-027 (first compound 2.53 µM); 0.543 with GSK126 + OSI-027 (first compound 8 µM); 0.859 with MLN4924 + Vorinostat (first compound 0.04 µM); 0.733 in the test with MLN4924 + Vorinostat (first compound 0.1265 µM). In addition, the relative viability with MLN4924 + Vorinostat (first compound 0.4 µM) was determined as 0.576; in the test with MLN4924 + Vorinostat (first compound 1.265 µM), 0.158; with MLN4924 + Vorinostat (first compound 4 µM) it was 0.152; in the test with Carboplatin + Tozasertib (first compound 0.08 µM), 0.746; in the test with Carboplatin + Tozasertib (first compound 0.253 µM), 0.687; with Carboplatin + Tozasertib (first compound 0.8 µM) it was 0.508. For the same cell line, the relative viability in the test with Carboplatin + Tozasertib (first compound 2.53 µM) worked out at 0.454; with Carboplatin + Tozasertib (first compound 8 µM), 0.469.
Turning to NCI-H460, the relative viability in the test with MLN4924 + Pictilisib (first compound 0.04 µM) stood at 0.506; with MLN4924 + Pictilisib (first compound 0.1265 µM) it was 0.729; with MLN4924 + Pictilisib (first compound 0.4 µM), 0.618; in the test with MLN4924 + Pictilisib (first compound 1.265 µM), 0.191; with MLN4924 + Pictilisib (first compound 4 µM) it was 0.0906; with GSK126 + OSI-027 (first compound 0.08 µM) it was 0.843. The relative viability stood at 0.615 with GSK126 + OSI-027 (first compound 0.253 µM); 0.622 with GSK126 + OSI-027 (first compound 0.8 µM); 0.718 in the test with GSK126 + OSI-027 (first compound 2.53 µM); 0.656 in the test with GSK126 + OSI-027 (first compound 8 µM); 0.679 in the test with MLN4924 + Vorinostat (first compound 0.04 µM); 0.827 in the test with MLN4924 + Vorinostat (first compound 0.1265 µM). In addition, the relative viability was 0.797 in the test with MLN4924 + Vorinostat (first compound 0.4 µM); 0.115 with MLN4924 + Vorinostat (first compound 1.265 µM); 0.0271 with MLN4924 + Vorinostat (first compound 4 µM); 0.54 with Carboplatin + Tozasertib (first compound 0.08 µM); 0.462 with Carboplatin + Tozasertib (first compound 0.253 µM); 0.387 in the test with Carboplatin + Tozasertib (first compound 0.8 µM). For the same cell line, the relative viability with Carboplatin + Tozasertib (first compound 2.53 µM) was 0.237; with Carboplatin + Tozasertib (first compound 8 µM), 0.168.
In the case of NCI-H520, the relative viability in the test with MLN4924 + Pictilisib (first compound 0.04 µM) came out at 0.322; in the test with MLN4924 + Pictilisib (first compound 0.1265 µM), 0.402; with MLN4924 + Pictilisib (first compound 0.4 µM), 0.359; with MLN4924 + Pictilisib (first compound 1.265 µM) it was 0.276; in the test with MLN4924 + Pictilisib (first compound 4 µM) it was 0.238; with GSK126 + OSI-027 (first compound 0.08 µM), 0.313. Besides, the relative viability is 0.269 with GSK126 + OSI-027 (first compound 0.253 µM); 0.289 in the test with GSK126 + OSI-027 (first compound 0.8 µM); 0.307 with GSK126 + OSI-027 (first compound 2.53 µM); 0.314 with GSK126 + OSI-027 (first compound 8 µM); 0.499 with MLN4924 + Vorinostat (first compound 0.04 µM); 0.499 with MLN4924 + Vorinostat (first compound 0.1265 µM). Also, the relative viability with MLN4924 + Vorinostat (first compound 0.4 µM) worked out at 0.321; with MLN4924 + Vorinostat (first compound 1.265 µM), 0.177; with MLN4924 + Vorinostat (first compound 4 µM), 0.223; with Carboplatin + Tozasertib (first compound 0.08 µM), 0.5; with Carboplatin + Tozasertib (first compound 0.253 µM) it was 0.433; with Carboplatin + Tozasertib (first compound 0.8 µM), 0.438. Further, the relative viability with Carboplatin + Tozasertib (first compound 2.53 µM) came to 0.389; with Carboplatin + Tozasertib (first compound 8 µM), 0.459.
